{"source": "patent US20130280279A1", "about": "“PHARMACEUTICAL COMPOSITION OF A COMPLEX OF AN ANTI-DIG ANTIBODY AND DIGOXIGENIN THAT IS CONJUGATED TO A PEPTIDE” (HOFFMANN-LA ROCHE INC., priority 2011, published 2013)", "key": {"[1]": {"experiment": "serum levels of Dig-peptide after i.v. application, Western Blot", "assay_type": "in vivo, mice (strain NRMI)", "method": "To generate Dig-Cy5 complexes, 886.1 nmol of lyophilized DIG-Cy5 were added to 446.4 nmol anti-DIG-Antibody in 20 mM Histidin/140 mM NaCl pH 6.0 in 4 portions within 1 h at RT, slowly shaking. After the addition of the last portion the sample was incubated for a total of 2 h. In case of the DIG-PYY complexes, 691.7 nmol of lyophilized DIG-PYY were added to 364 nmol anti-DIG-Antibody in 20 mM Histidin/140 mM NaCl pH 6.0 and treated equally as the DIG-Cy5 complexes. The samples were applied to a Superdex 200 HiLoad 16/60 prep grade size exclusion column with 20 mM Histidin/140 mM NaCl pH6.0 as mobile phase. Fractions containing the complex were pooled and concentrated to 19.4 mg/ml (DIG-Cy5 complex) and 19.9 mg/ml (DIG-PYY complex) with a centrifugal filtration device (Vivaspin 20, 30 kDa MWCO, GE Healthcare). The protein concentration of the DIG-Cy5 containing sample was determined by the formula 4A280−(A649×CF))×dilution factor)/ε. CF is the correction factor A280nm/A649nm which was determined as 0.008. Loading of the antibody with DIG-Cy5 was calculated as 1.2 moles of DIG-Cy5 per mole antibody with the formula: (A649nm/(εCy5×protein concentration M))×dilution factor. […] All samples were filtered with a PVDF syringe filter (0.22 μm pore size) under sterile conditions.\nTo analyze the influence on PK parameters of antibody-complexation of the digoxigenated peptide, 32.1 nmol of the peptide DIG-moPYY, or of the corresponding antibody complexated peptide in 20 mM Histidin/140 mM NaCl pH 6.0 were applied to 2 female mice (strain NRMI) for each substance. […] About 0.1 ml blood samples were collected after the following time points: 0.08 h, 2 h and 24 h for Mouse 1 and 0.08 h, 4 h 24 h for Mouse 2. Serum samples of at least 40 μl were obtained after 1 h at RT by centrifugation (9300×g, 3 min, 4° C.). Serum samples were stored at −80° C. […] The reason for that was that we had no direct means to detect the peptide in serum samples. Therefore, we devised a Western-Blot related assay to detect digoxigenated peptide in serum. In a first step, the serum samples were separated on reducing SDS-PAGE. Because sample preparation for that included exposure of the serum to high concentrations of SDS and reducing agents, Dig-peptides can become released from the (completely denatured/unfolded)<Dig> IgG. To mediate the release of peptide from the antibody complex and separate them by SDS-PAGE, 2 μl of each serum sample was diluted in 18 μl 20 mM Histidin/140 mM NaCl pH 6.0, mixed with 6.7 μl of 4×LDS sample buffer and 3 μl of 10× sample reducing agent (NuPAGE, Invitrogen) for 5 min at 95° C. […] Digoxigenated peptides were subsequently detected on the membrane with anti-digoxygenin antibodies. […] Chemiluminescence was detected with the LumiImager F 1 (Roche) with an exposure time of 20 min. […]"}, "[2]": {"target": "T1, NPY2 receptor (Homo sapiens, UniProt P49146)", "T1 construct": "expressed in transfected cells; host or cells: HEK293/hNPY2R (grown under G418 selection)", "T1 sequence (P49146 1-381)": "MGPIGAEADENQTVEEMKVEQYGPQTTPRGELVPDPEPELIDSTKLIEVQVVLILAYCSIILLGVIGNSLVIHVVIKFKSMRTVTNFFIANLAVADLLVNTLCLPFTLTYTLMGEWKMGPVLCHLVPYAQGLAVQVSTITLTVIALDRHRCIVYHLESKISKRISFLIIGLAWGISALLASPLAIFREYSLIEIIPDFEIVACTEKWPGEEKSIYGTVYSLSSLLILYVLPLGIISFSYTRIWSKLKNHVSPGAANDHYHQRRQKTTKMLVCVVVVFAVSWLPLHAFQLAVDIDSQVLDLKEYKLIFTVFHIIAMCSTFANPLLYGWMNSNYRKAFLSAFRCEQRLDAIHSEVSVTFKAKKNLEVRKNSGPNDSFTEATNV", "experiment": "cAMP assay: inhibition of Forskolin stimulated cAMP accumulation in HEK293/hNPY2R", "assay_type": "cell-based", "method": "To perform the assay, on the first day, medium was discarded, and the monolayer cells were washed with 10 mL PBS per flask (T225). […] The flask was gently tapped and the cell suspension was pooled. Each flask was rinsed with 10 mL plating medium and centrifuged at 1000 rpm for 5 min. The suspension was pooled and counted. […] The plates were incubated at 37° C. overnight. […] The media and reagents were allowed to come to room temperature. […] The cell medium was tapped off with a gentle inversion of the cell plate on a paper towel. 50 μL of stimulation medium was placed per well (each concentration done in four replicates). The plates were incubated at room temperature for 30 min, and the cells were checked under a microscope for toxicity. After 30 min of treatment, the stimulation media was discarded and 50 μL/well of Assay Lysis Buffer (provided in the Tropix kit) was added. […] 20 μL of the lysate was transferred from stimulation plates into the pre-coated antibody plates (384-well) from the Tropix kit. […] The plates were incubated at room temperature while shaking for 1 hour. […] The plates were tapped to dry. […] Signal for 1 sec/well in a Luminometer. (VICTOR-V) was measured."}, "[3]": {"test_system": "diet-induced obese (DIO) mice", "experiment": "food intake in DIO (diet-induced-obesity) model", "assay_type": "in vivo, C57Bl/6 mice", "details": "moPYY 11.05 μMol/kg, antibody-complexed DIG-moPYY 0.62 μMol/kg, up to 96 h post-dosing", "method": "To determine the effect of NPY2-receptor agonists on food intake in these experiments we applied uncomplexed PYY-derived peptides and antibody complexed peptides to animals (adult male C57Bl/6 mice) in a DIO (diet-induced-obesity) model. The experiments were conducted on adult male C57Bl/6 mice obtained from Jackson laboratories. The mice were placed on a high fat diet (HFD; 60% of dietary kcal as fat, BioServe F3282) for over 20 weeks to induce obesity. The diet-induced obese (DIO) mice were sorted by body weight and 24 h food intake, and housed individually in standard caging at 22° C. in a reversed 12-h light/12-h dark cycle, and were acclimated to these conditions for at least 6 days before start of the experiment. Food (HFD) and water were provided ad libitum throughout the study. Ab-PYY3-37 fusion proteins and the vehicle controls were injected at the beginning of the dark cycle and food intake measured at various time intervals up to 96 h post-dosing (N=6-8 mice/group). Uncomplexed peptide moPYY was applied at concentration of 11.05 μMol/kg. Antibody-complexed DIG-moPYY was applied at a concentration of 0.62 μMol/kg. Thus, the injected molar concentration of the antibody complexed peptide was more than 17-fold lower than that of the uncomplexed peptide. […]"}, "[4]": {"experiment": "excitation and emission spectra of Cy5 derivatives", "assay_type": "physicochemical", "from_the_text": "To evaluate whether digoxigenation of Cy5 alters its fluorescence features, we compared the excitation and emission spectra of Cy5 and compared it with the spectra of the newly generated Dig-Cy5 and with Dig-Cy5 within a complex with bispecific antibodies."}}, "data": [{"compound": "CC[C@H](C)[C@H](NC(C)=O)C(=O)N[C@@H](CCCCNC(=O)CCOCCOCCOCCNC(=O)CO[C@H]1CC[C@@]2(C)[C@H](CC[C@@H]3[C@@H]2C[C@@H](O)[C@]2(C)[C@@H](C4=CC(=O)OC4)CC[C@]32O)C1)C(=O)N1CCN(c2ccc3ncn(CC(=O)N[C@@H](CCCNC(=N)N)C(=O)N[C@@H](Cc4c[nH]cn4)C(=O)N[C@@H](Cc4ccc(O)cc4)C(=O)N[C@@H](CC(C)C)C(=O)N[C@@H](CC(N)=O)C(=O)N[C@@H](Cc4c[nH]c5ccccc45)C(=O)N[C@H](C(=O)N[C@H](C(=O)N[C@@H](CCCNC(=N)N)C(=O)N[C@@H](CCC(N)=O)C(=O)N(C)[C@@H](CCCNC(=N)N)C(=O)N[C@@H](Cc4ccc(O)cc4)C(N)=O)[C@@H](C)O)C(C)C)c(=O)c3c2)CC1", "note": "[<Dig> DIGmoPYY]", "values": [{"measurement": "Dig-peptide signal in serum (Western Blot, in words)", "setting": "[1]; 5 min after administration, listed as <DIG>-DIG-moPYY", "result": "strong signals"}, {"measurement": "Dig-peptide signal in serum (Western Blot, in words)", "setting": "[1]; later time points up to 24 hrs after administration, listed as <DIG>-DIG-moPYY", "result": "still detectable with good signals"}, {"measurement": "biological activity in vitro compared to PEG-peptide", "setting": "[2]; cAMP assay", "result": "four fold better"}, {"measurement": "effect on food intake", "setting": "[3]", "result": "strikingly reduced the food-intake"}]}, {"compound": "CC[C@H](C)[C@H](NC(C)=O)C(=O)N[C@@H](CCCCNC(=O)CCOCCOCCOCCNC(=O)CO[C@H]1CC[C@@]2(C)[C@H](CC[C@@H]3[C@@H]2C[C@@H](O)[C@]2(C)[C@@H](C4=CC(=O)OC4)CC[C@]32O)C1)C(=O)N1CCN(c2ccc3ncn(CC(=O)N[C@@H](CCCNC(=N)N)C(=O)N[C@@H](Cc4c[nH]cn4)C(=O)N[C@@H](Cc4ccc(O)cc4)C(=O)N[C@@H](CC(C)C)C(=O)N[C@@H](CC(N)=O)C(=O)N[C@@H](Cc4c[nH]c5ccccc45)C(=O)N[C@H](C(=O)N[C@H](C(=O)N[C@@H](CCCNC(=N)N)C(=O)N[C@@H](CCC(N)=O)C(=O)N(C)[C@@H](CCCNC(=N)N)C(=O)N[C@@H](Cc4ccc(O)cc4)C(N)=O)[C@@H](C)O)C(C)C)c(=O)c3c2)CC1", "note": "[DIG-moPYY]", "values": [{"measurement": "Dig-peptide signal in serum (Western Blot, in words)", "setting": "[1]; 5 min after administration", "result": "only in trace amounts"}, {"measurement": "Dig-peptide signal in serum (Western Blot, in words)", "setting": "[1]; later time points up to 24 hrs after administration", "result": "no defined peptide band are detectable"}, {"measurement": "IC50", "setting": "[2]", "result": 420, "unit": "pM"}]}, {"compound": "CCN1/C(=C/C=C/C=C/C2=[N+](CCCCCC(=O)O)c3ccc(S(=O)(=O)O)cc3C2(C)C)C(C)(C)c2cc(S(=O)(=O)[O-])ccc21", "note": "[Cy5]", "values": [{"measurement": "Emission maximum", "setting": "[4]", "result": 680, "unit": "nm"}, {"measurement": "Excitation maximum", "setting": "[4]", "result": 652, "unit": "nm"}]}]}
